Source: EP4685142A1, “TRIAZINE COMPOUND AND USE THEREOF” (Chengdu Zenitar Biomedical Technology Co., Ltd., priority 2023, dated 2024)
Where two headings read alike, the source gives them in different places.

Legend:
NLRP3 inflammasome = target: T1, NLRP3 inflammasome (Homo sapiens, UniProt Q96P20); assay: Inhibitory activity of NLRP3 inflammasome in human monocytes (THP-1 cells, LPS + Nigericin, IL-1β ELISA); assay type: cell-based
T1 construct: host or cells: THP-1 cells
Method: 1. Determination of inhibitory activity of NLRP3 inflammasome in human monocytes
Experimental method: THP-1 cells were cultured in RPMI culture medium containing PMA (10 µM), and then inoculated in 48-well plates at a density of 2×10^5 cells/mL, the plates were incubated overnight in a 5% CO2 incubator at 37°C. The next day, the above culture medium was replaced with Opti-MEM culture medium containing 1 µg/mL LPS. After 3 hours, the grown cells were simulated for 40 min with a drug, and then simulated for 40 min with Nigericin (10 µM), and a cell supernatant was harvested for ELISA analysis.
Table 2 Inhibitory activity of NLRP3 inflammasome

[1] = Pharmacokinetic evaluation in Balb/c mice; assay type: in vivo; settings: mouse, in vivo, 5 mg/kg, PO, Balb/c mice; for AUC(0-t): read-out: AUC(0-t); for Cmax: read-out: Cmax; for half-life: read-out: T1/2 (converted)
Excerpt: 4. Pharmacokinetic evaluation of compounds in Balb/c mice
Experimental purpose: to understand pharmacokinetic properties of the compounds.
Experimental basis: Technical Guidelines for Nonclinical Pharmacokinetic Studies of Chemical Drugs, 2014.
Experimental protocol: the pharmacokinetic properties of the compounds were investigated via intravenous administration and intragastric administration in Balb/c mice.
The blood drug concentration was quantitatively analyzed by LC-MS/MS, and pharmacokinetic parameters were calculated, such as peak concentration (Cmax), area under the concentration-time curve (AUC(0-t)), half-life (T1/2), clearance (CL), volume of distribution at steady state (Vdss), and bioavailability (F).
The results of pharmacokinetic evaluation are shown in Table 5 below: Table 5 Pharmacokinetic test results of compounds in Balb/c mice

T1 sequence (Q96P20 whole entry): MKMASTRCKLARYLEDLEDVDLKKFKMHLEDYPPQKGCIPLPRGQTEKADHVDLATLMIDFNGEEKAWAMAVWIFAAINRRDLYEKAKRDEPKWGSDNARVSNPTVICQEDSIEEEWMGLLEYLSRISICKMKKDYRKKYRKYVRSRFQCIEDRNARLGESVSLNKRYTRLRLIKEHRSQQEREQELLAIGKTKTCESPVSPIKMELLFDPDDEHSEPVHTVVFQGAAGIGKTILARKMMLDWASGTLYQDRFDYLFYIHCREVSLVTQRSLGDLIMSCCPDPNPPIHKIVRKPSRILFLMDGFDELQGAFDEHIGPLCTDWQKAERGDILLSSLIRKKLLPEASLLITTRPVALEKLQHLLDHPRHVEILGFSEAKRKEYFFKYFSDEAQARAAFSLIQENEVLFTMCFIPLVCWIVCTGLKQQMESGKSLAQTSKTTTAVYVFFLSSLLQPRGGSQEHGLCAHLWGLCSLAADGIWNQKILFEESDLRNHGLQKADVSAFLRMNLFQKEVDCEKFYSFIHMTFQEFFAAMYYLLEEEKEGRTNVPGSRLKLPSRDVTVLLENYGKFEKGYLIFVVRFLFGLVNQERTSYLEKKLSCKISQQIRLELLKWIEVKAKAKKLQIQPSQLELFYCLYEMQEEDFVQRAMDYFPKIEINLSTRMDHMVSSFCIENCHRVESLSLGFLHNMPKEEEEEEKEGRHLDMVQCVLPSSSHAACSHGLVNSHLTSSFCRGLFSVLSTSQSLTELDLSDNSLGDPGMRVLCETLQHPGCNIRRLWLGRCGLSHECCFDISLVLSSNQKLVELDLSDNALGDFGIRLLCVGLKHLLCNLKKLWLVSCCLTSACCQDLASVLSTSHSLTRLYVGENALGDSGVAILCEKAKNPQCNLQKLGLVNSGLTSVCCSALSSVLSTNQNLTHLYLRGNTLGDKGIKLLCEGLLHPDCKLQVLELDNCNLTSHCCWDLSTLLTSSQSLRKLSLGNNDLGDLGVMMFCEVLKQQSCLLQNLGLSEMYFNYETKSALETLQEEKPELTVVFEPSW

SMILES	IC50 (NLRP3 inflammasome) [nM]	AUC(0-t) [1] [ng·h/mL]	Cmax [1] [ng/mL]	half-life [1] [h]	IC50 (NLRP3 inflammasome; THP-1 cells, PMA, LPS 1 µg/mL 3 h, drug 40 min, Nigericin 10 µM 40 min, IL-1β ELISA, read-out: IC50) [nM]	IC50 (NLRP3 inflammasome; read-out: IC50) [nM]
CN1CCC[C@@H](Nc2nnc(-c3ccc4c(c3O)CCC4=C(F)F)n(C)c2=O)C1 [Compound 13, (R)-3-(1-(difluoromethylene)-4-hydroxy-2,3-dihydro-1H-inden-5-yl)-4-methyl-6-((1-methylpiperidin-3-yl)amino)-1,2,4-triazin-5 (4H)-ketone]	1.36	98700	11400	5.47		
CC(C)N1CCC[C@@H](Nc2nnc(-c3ccc4sccc4c3O)n(C)c2=O)C1 [Compound 36]	1.55	3320	1510	1.24		
CN1CCC[C@@H](Nc2nnc(-c3ccc(C(F)(F)F)cc3O)n(C)c2=O)C1 [Ref-3, reference compound]		1820	1140	0.87	6.49	
CCN1CCC[C@@H](Nc2nnc(-c3ccc4c(c3O)CCC4=C(F)F)n(C)c2=O)C1 [Compound 2, (R)-3-(1-(difluoromethylene)-4-hydroxy-2,3-dihydro-1H-inden-5-yl)-6-((1-ethylpiperidin-3-y 1)amino)-4-methyl-1,2,4-triazin-5(4H)-ketone]	4.86	15200	2690	2.82		
[2H]C([2H])([2H])n1c(-c2ccc3sccc3c2O)nnc(N[C@@H]2CCCN(CC)C2)c1=O [Compound 55, (R)-6-((1-ethylpiperidin-3-yl)amino)-3-(4-hydroxybenzo[b]thiophen-5-yl)-4-(methyl-d3)-1,2,4-triazin-5(4H)-ketone]	3.5	7450	1710	2.91		
CN1C[C@H](Nc2nnc(-c3ccc4sccc4c3O)n(C)c2=O)CC(F)(F)C1 [Compound 37, (R)-6-((5,5-difluoro-1-methylpiperidin-3-yl)amino)-3-(4-hydroxybenzb[b]thiophen-5-yl)-4-m ethyl-1,2,4-triazin-5(4H)-ketone]						15.1
Cn1c(-c2ccc3c(c2O)CCC3=C(F)F)nnc(N[C@@H]2CCCN(CCO)C2)c1=O [Compound 1, (R)-3-(1-(difluoromethylene)-4-hydroxy-2,3-dihydro-1H-inden-5-yl)-6-((1-(2-hydroxyethyl)piperidin-3-yl)amino)-4-methyl-1,2,4-triazin-5(4H)-ketone]						4.24
CN1CCC[C@@H](Nc2nnc(-c3ccc4sccc4c3OC(F)F)n(C)c2=O)C1 [Compound 38, (R)-3-(4-(difluoromethoxy)benzo[b]thiophen-5-yl)-4-methyl-6-((1-methylpiperidin-3-yl)amino)-1,2,4-triazin-5(4H)-ketone]						257
Cn1c(-c2ccc3ccccc3c2O)nnc(N[C@@H]2CCCN(CCO)C2)c1=O [Compound 20, (R)-6-((1-(2-hydroxyethyl)piperidin-3-yl)amino]-3-(1-hydroxynaphthalen-2-yl)-4-methyl-1,2,4-triazin-5(4H)-ketone]						35.1
CN1CCC[C@@H](Nc2nnc(-c3ccc(-c4ncccn4)cc3O)n(C)c2=O)C1 [Compound 47, (R)-3-(2-hydroxy-4-(pyrimidin-2-yl)phenyl)-4-methyl-6-((1-methylpiperidin-3-yl)amino)-1,2,4-triazin-5(4H)-ketone]						450
O=c1c(N[C@@H]2CCCN(CCO)C2)nnc(-c2ccc3sccc3c2O)n1C1CC1 [Compound 23, (R)-4-cyclopropyl-3-(4-hydroxybenzo[b]thiophen-5-yl)-6-((1-(2-hydroxyethyl)piperidin-3-yl)amino)-1,2,4-triazin-5(4H)-ketone]						8.95
Cn1c(-c2ccc3c(c2O)CCC3=C(F)F)nnc(N[C@@H]2CCCN(C3CC(F)(F)C3)C2)c1=O [Compound 14, (R)-6-((1-(3,3-Difluorocyclobutyl)piperidin-3-yl)amino)-3-(1-(difluoromethylene)-4-hydroxy-2,3-dihydro-1H-inden-5-yl)-4-methyl-1,2,4-triazin-5(4H)-ketone]						32
